Test results: patent publication US10494360B2, “Inhibitors of indoleamine 2,3-dioxygenase” (NETHERLANDS TRANSLATIONAL RESEARCH CENTER B.V., priority 2016, dated 2019)
pIC50: −log10 of the molar value. Values joined by “and” are separate entries in the source; they are usually repeats but may differ in a detail not shown here. Identical values can stand only once.

Columns and labels:
[1] = molecular target: T1, IDO1 (Homo sapiens, UniProt P14902); assay: Cell-based assay for IDO1 in interferon-γ stimulated A-375 melanoma cells; settings: interferon-γ stimulation, 48 hours, read-out: IC50, cell-based IDO1 (NFK levels)
Protocol: The biological activity of IDO1 inhibitors can be measured by applying above detection methods to cells that are treated with test compound. The expression of IDO1 can be induced in many different cell lines by stimulation with IFNγ (Takikawa, O., et al., J. Biol. Chem. 263: 2041; 1988; Seegers, et al.), or IDO1 can be expressed in cells that lack endogenous IDO1 by transfection of an expression vector containing IDO1 cDNA.
A-375 melanoma cells were purchased from LGC Standards GmbH (Wesel, Germany) and cultured in DMEM tissue culture medium (Life Technologies, Bleiswijk, The Netherlands), supplemented with 10% (v/v) bovine calf serum. Compounds were dissolved in DMSO and diluted in DMEM. Final DMSO concentration in the assay was 0.4% (v/v). Eight thousand cells per well in 35 μl were seeded in a black 384-well tissue plate (cat. No. 781086; Greiner Bio-One GmbH, Frickenhausen, Germany) and allowed to adhere by incubation at 37° C., 95% humidity, and 5% CO2 overnight. Then, 5 μl of compound solution was added to the cells 1 hour prior to stimulation with 5 μl of 500 ng/ml interferon-γ (R&D Systems, Minneapolis, Minn., USA) diluted in DMEM medium. At the same time, 5 μl of L-tryptophan in 20 mM Hepes buffer pH 7.4 was added. Incubation was continued for 48 hours. To determine NFK levels, 12 μl NFK Green™ (NTRC, Oss, The Netherlands) was added to each well, and the plate was sealed and incubated for 4 hours at 37° C. Fluorescence was measured on an EnVision multimode reader (Perkin Elmer, Waltham, Mass., USA). IC50 were calculated using XLfit™ software (ID Business Solutions, Ltd., Surrey, U.K.).

[2] = molecular target: T1, IDO1; assay: Biochemical IDO1 assay (NFK GreenScreen); design: Recombinant full-length IDO1 (Seegers, N., et al.) and all other assay components were diluted in IDO1 reaction buffer; made in house; settings: for relative activity of separated isomers: less active / most active isomer of the pair, assay not given; for pIC50: recombinant full-length IDO1 25 nM, L-tryptophan 100 μM, NFK Green detection, read-out: IC50, inhibitory potency on IDO1
Protocol: Inhibition of IDO1 activity can be measured by determining the enzymatic conversion of L-tryptophan into N-formylkynurenine (NFK) in a reaction mixture containing IDO1 and test compound. The formation of NFK can be detected directly by, for instance, high-performance liquid chromatography (HPLC) methods, or by intrinsic fluorescence.
Compounds were serially diluted in dimethylsulfoxide (DMSO) and finally in IDO1 reaction buffer, consisting of 50 mM NaH2PO4, pH7.0, supplemented with 0.05% Tween-20 (cat. No. P7949; Sigma Aldrich) and 1% glycerol. Recombinant full-length IDO1 (Seegers, N., et al.) and all other assay components were diluted in IDO1 reaction buffer. […] Subsequently, 10 μl of 0.4 mM of the substrate L-tryptophan was added, i.e., the final concentration of L-tryptophan was 100 μM. The DMSO concentration in the assay was 0.3%. […] Incubation was continued for 60 min at room temperature. Then, 10 μl of NFK Green™ (NTRC, Oss, The Netherlands) was added, the plate was sealed, and the reaction was developed for 3 hours at 37° C. To determine the production of N-formyl kynurenine (NFK), the seal was removed and fluorescence was read on an EnVision multimode reader (Perkin Elmer, Waltham, Mass., USA). IC50 were calculated using XLfit™ software (ID Business Solutions, Ltd., Surrey, U.K.).

T1 sequence (P14902 whole entry, species assumed): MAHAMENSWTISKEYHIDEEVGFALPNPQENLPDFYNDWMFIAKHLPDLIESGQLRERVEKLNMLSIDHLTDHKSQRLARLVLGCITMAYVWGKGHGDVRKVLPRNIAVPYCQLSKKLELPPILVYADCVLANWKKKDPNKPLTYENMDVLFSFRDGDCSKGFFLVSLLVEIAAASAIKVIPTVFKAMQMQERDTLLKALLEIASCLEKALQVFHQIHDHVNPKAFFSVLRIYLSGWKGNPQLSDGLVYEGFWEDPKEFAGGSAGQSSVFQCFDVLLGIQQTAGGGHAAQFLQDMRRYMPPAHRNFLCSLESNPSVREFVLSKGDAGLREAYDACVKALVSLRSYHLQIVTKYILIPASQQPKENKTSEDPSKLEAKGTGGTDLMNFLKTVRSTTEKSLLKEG

Row | pIC50 [1] | relative activity of separated isomers [2] | pIC50 [2] | Structure (SMILES)
1 | > 5.30 | most active isomer | ≥ 6.00 | C[C@@H](c1ccccc1)N1CC(=O)N(O)C1c1cccc(Br)c1 (single isomer, unassigned) [Example 139b]
2 | > 5.30 | less active isomer | ≥ 5.30 and 5.30 to 6.00 | C[C@@H](c1ccccc1)N1CC(=O)N(O)C1c1cccc(I)c1 (single isomer, unassigned) [Example 140a]
3 | > 5.30 | – | ≥ 6.00 | CC(c1c(F)cccc1F)N1CC(=O)N(O)C1c1cccc(Br)c1 (single isomer, unassigned) [Example 141b, 2-(3-Bromophenyl)-1-[1-(2,6-difluorophenyl)ethyl]-3-hydroxy-imidazolidin-4-one]
4 | > 5.30 | less active isomer | ≥ 5.30 and 5.30 to 6.00 | O=C1CN(C(=O)c2c(F)cccc2F)C(c2cccc(Br)c2)N1O (single isomer, unassigned) [Example 142a, 2-(3-bromophenyl)-1-(2,6-difluorobenzoyl)-3-hydroxy-imidazolidin-4-one]
5 | > 5.30 | – | ≥ 5.30 and 5.30 to 6.00 | O=C1CN(C(=O)c2ccccc2Cl)C(c2cccc(C(F)(F)F)c2)N1O (centres unmarked) [Example 2, 1-(2-Chlorobenzoyl)-3-hydroxy-2-[3-(trifluoromethyl)phenyl]imidazolidin-4-one]
6 | > 5.30 | – | ≥ 6.00 | O=C1CN(C(=O)c2c(F)cccc2Cl)C(c2cccc(C(F)(F)F)c2)N1O (centres unmarked) [Example 3, 1-(2-Chloro-6-fluoro-benzoyl)-3-hydroxy-2-[3-(trifluoromethyl)phenyl]imidazolidin-4-one]
7 | > 5.30 | – | ≥ 6.00 | O=C1CN(C(=O)c2c(F)cccc2F)C(c2cccc(C(F)(F)F)c2)N1O (centres unmarked) [Example 4, 1-(2,6-Difluorobenzoyl)-3-hydroxy-2-[3-(trifluoromethyl)phenyl]imidazolidin-4-one]
8 | > 5.30 | – | ≥ 5.30 and 5.30 to 6.00 | O=C1CN(C(=O)c2c(F)cccc2Cl)C(c2ccc(Cl)c(C(F)(F)F)c2)N1O (centres unmarked) [Example 7, 1-(2-Chloro-6-fluoro-benzoyl)-2-[4-chloro-3-(trifluoromethyl)phenyl]-3-hydroxy-imidazolidin-4-one]
9 | > 5.30 | – | ≥ 6.00 | O=C1CN(C(=O)c2c(F)cccc2F)C(c2ccc(Cl)c(C(F)(F)F)c2)N1O (centres unmarked) [Example 9, 2-[4-Chloro-3-(trifluoromethyl)phenyl]-1-(2,6-difluorobenzoyl)-3-hydroxy-imidazolidin-4-one]
10 | > 5.30 | – | ≥ 5.30 and 5.30 to 6.00 | O=C1CN(C(=O)c2ccccc2F)C(c2cccc(C(F)(F)F)c2)N1O (centres unmarked) [Example 10, 1-(2-Fluorobenzoyl)-3-hydroxy-2-[3-(trifluoromethyl)phenyl]imidazolidin-4-one]
11 | > 5.30 | – | ≥ 6.00 | O=C1CN(C(=O)c2ccccc2F)C(c2cccc(Cl)c2)N1O (centres unmarked) [Example 13, 2-(3-Chlorophenyl)-1-(2-fluorobenzoyl)-3-hydroxy-imidazolidin-4-one]
12 | > 5.30 | – | ≥ 6.00 | O=C1CN(C(=O)c2c(F)cccc2F)C(c2cccc(Cl)c2)N1O (centres unmarked) [Example 15, 2-(3-Chlorophenyl)-1-(2,6-difluorobenzoyl)-3-hydroxy-imidazolidin-4-one]
13 | > 5.30 | – | ≥ 5.30 and 5.30 to 6.00 | O=C1CN(C(=O)c2ccccc2)C(c2cccc(Br)c2)N1O (centres unmarked) [Example 17, 1-Benzoyl-2-(3-bromophenyl)-3-hydroxy-imidazolidin-4-one]
14 | > 5.30 | – | ≥ 5.30 and 5.30 to 6.00 | N#Cc1cc(F)c(C(=O)N2CC(=O)N(O)C2c2cccc(Br)c2)c(Cl)c1 (centres unmarked) [Example 25, 4-[2-(3-Bromophenyl)-3-hydroxy-4-oxo-imidazolidine-1-carbonyl]-3-chloro-5-fluoro-benzonitrile]
15 | > 5.30 | – | ≥ 6.00 | O=C1CN(C(=O)c2cc(F)ccc2F)C(c2cccc(Br)c2)N1O (centres unmarked) [Example 26, 2-(3-Bromophenyl)-1-(2,5-difluorobenzoyl)-3-hydroxy-imidazolidin-4-one]
16 | > 5.30 | – | ≥ 6.00 | O=C1CN(C(=O)c2c(F)cccc2F)C(c2cccc(Br)c2)N1O (centres unmarked) [Example 27, 2-(3-Bromophenyl)-1-(2,6-difluorobenzoyl)-3-hydroxy-imidazolidin-4-one]
17 | > 5.30 | – | ≥ 6.00 | O=C1CN(C(=O)c2c(F)cccc2Cl)C(c2cccc(Br)c2)N1O (centres unmarked) [Example 32, 2-(3-Bromophenyl)-1-(2-chloro-6-fluoro-benzoyl)-3-hydroxy-imidazolidin-4-one]
18 | > 5.30 | – | ≥ 6.00 | O=C1CN(C(=O)c2ccccc2F)C(c2cccc(Br)c2)N1O (centres unmarked) [Example 33, 2-(3-Bromophenyl)-1-(2-fluorobenzoyl)-3-hydroxy-imidazolidin-4-one]
19 | > 5.30 | – | ≥ 6.00 | O=C1CN(C(=O)c2ccccc2Cl)C(c2cccc(Br)c2)N1O (centres unmarked) [Example 34, 2-(3-Bromophenyl)-1-(2-chlorobenzoyl)-3-hydroxy-imidazolidin-4-one]
20 | > 5.30 | – | ≥ 6.00 | O=C1CN(C(=O)c2cccc(Cl)c2Cl)C(c2cccc(Br)c2)N1O (centres unmarked) [Example 35, 2-(3-Bromophenyl)-1-(2,3-dichlorobenzoyl)-3-hydroxy-imidazolidin-4-one]
21 | > 5.30 | – | ≥ 5.30 and 5.30 to 6.00 | O=C1CN(C(=O)c2ccccc2)C(c2ccc(F)c(Br)c2)N1O (centres unmarked) [Example 39, 1-Benzoyl-2-(3-bromo-4-fluoro-phenyl)-3-hydroxy-imidazolidin-4-one]
22 | > 5.30 | – | ≥ 5.30 and 5.30 to 6.00 | O=C1CN(C(=O)c2cccc(F)c2)C(c2ccc(F)c(Br)c2)N1O (centres unmarked) [Example 43, 2-(3-Bromo-4-fluoro-phenyl)-1-(3-fluorobenzoyl)-3-hydroxy-imidazolidin-4-one]
23 | > 5.30 | – | ≥ 6.00 | O=C1CN(C(=O)c2c(F)cccc2F)C(c2ccc(F)c(Br)c2)N1O (centres unmarked) [Example 44, 2-(3-Bromo-4-fluoro-phenyl)-1-(2,6-difluorobenzoyl)-3-hydroxy-imidazolidin-4-one]
24 | > 5.30 | – | ≥ 6.00 | O=C1CN(C(=O)c2c(F)cccc2Cl)C(c2ccc(F)c(Br)c2)N1O (centres unmarked) [Example 45, 2-(3-Bromo-4-fluoro-phenyl)-1-(2-chloro-6-fluoro-benzoyl)-3-hydroxy-imidazolidin-4-one]
25 | > 5.30 | – | ≥ 6.00 | O=C1CN(C(=O)c2ccccc2F)C(c2ccc(F)c(Br)c2)N1O (centres unmarked) [Example 46, 2-(3-Bromo-4-fluoro-phenyl)-1-(2-fluoro-benzoyl)-3-hydroxy-imidazolidin-4-one]
26 | > 5.30 | – | ≥ 6.00 | O=C1CN(C(=O)c2ccccc2F)C(c2ccc(F)c(Cl)c2)N1O (centres unmarked) [Example 51, 2-(3-Chloro-4-fluoro-phenyl)-1-(2-fluorobenzoyl)-3-hydroxy-imidazolidin-4-one]
27 | > 5.30 | – | ≥ 6.00 | O=C1CN(C(=O)c2c(F)cccc2F)C(c2ccc(F)c(Cl)c2)N1O (centres unmarked) [Example 52, 2-(3-Chloro-4-fluoro-phenyl)-1-(2,6-difluorobenzoyl)-3-hydroxy-imidazolidin-4-one]
28 | > 5.30 | – | ≥ 6.00 | O=C1CN(C(=O)c2c(F)cccc2Cl)C(c2ccc(F)c(Cl)c2)N1O (centres unmarked) [Example 53, 1-(2-Chloro-6-fluoro-benzoyl)-2-(3-chloro-4-fluoro-phenyl)-3-hydroxy-imidazolidin-4-one]
